{"source": "patent US20220339416A1", "about": "“SILK FIBROIN-BASED MICRONEEDLES AND USES THEREOF” (VAXESS TECHNOLOGIES, INC., priority 2019, published 2022)", "key": {"[1]": {"system": "B16-F10 mouse melanoma tumor", "test": "Daily vs single bolus intratumoral administration in B16-F10 mouse melanoma tumor model", "type": "in vivo", "conditions": "anti-PD1 mAb 100 ug i.p. Day 4 and 9", "text": "Mouse melanoma cells (B16-F10) are to be injected into the flank (right side) of mice (C57Bl/6) and a tumor is to be allowed to form. The agent will be administered intratumorally or peritumorally (i.e., intradermally or subcutaneously) either as: • 1. a single bolus, • 2. a series of fractional injections where the total dose given over the time frame is equivalent to the single bolus. These injections may be given daily or every other day. • 3. a silk microneedle patch formulated with the one or more therapeutic agents.\nTumor growth will be measured two to three times weekly. Animals will be euthanized when humane endpoints have been reached. These endpoints include weight loss >15%, body condition score <1, tumor volume >1 cm^3, tumor length (defined as the longest dimension) >1.5 cm, or tumor ulceration/necrosis. These humane endpoints apply to all in vivo experiments using the melanoma model.\nAccording to the methods outlined above, daily intratumoral administration was compared to single intratumoral bolus doses, with IL-2 or gemcitabine, using a B16-F10 mouse melanoma tumor model. For this study, two cycles of treatment were performed, including a bolus administration on Day 7 and on Day 21, and daily administration on Days 7-11 and Days 21-25. […] On Day 0, mice were inoculated by subcutaneous administration of B16-F10 cells. […]"}, "CT26 colon carcinoma": {"system": "CT26 colon carcinoma", "test": "Daily vs single bolus intratumoral administration in murine CT26 colon carcinoma model", "type": "in vivo, mouse", "conditions": "daily intratumoral 95 μg days 7-11 compared to single bolus 475 μg day 7; anti-PD1 mAb 100 μg i.p. day 4 and 9", "protocol": "Daily intratumoral administration compared to single intratumoral bolus doses was further investigated using gemcitabine in a murine CT26 colon carcinoma model (see FIG. 7A-7B). On day 0, mice were inoculated by subcutaneous administration of CT26 cells. On day 4 and day 9, mice were administered a dose of an anti-PD1 mAb (100 μg per dose) by intraperitoneal injection. Data was pooled from two experiments, with 10 mice per group.\nCT26 mice in the ‘single bolus dose’ group received a single bolus dose of gemcitabine (475 μg) (intratumoral) at day 7, and four doses of saline (intratumoral) for the next four days (FIG. 7A). CT26 mice in the ‘daily dose’ group received daily doses of gemcitabine (95 μg) (intratumoral) over days 7-11 (5 total doses) (FIG. 7B). Each daily doses was a fractional dose equivalent to approximately ⅕ of the single bolus dose."}}, "data": [{"compound": "Nc1ccn([C@@H]2O[C@H](CO)[C@@H](O)C2(F)F)c(=O)n1", "note": "[gemcitabine]", "values": [{"measurement": "survival (Kaplan-Meier curve)", "setting": "[1]; daily intratumoral doses (Days 7-11 and 21-25) compared to single bolus doses (Day 7 and 21)", "result": "greater survival"}, {"measurement": "tumor burden, as determined by tumor volume over time", "setting": "[1]; daily intratumoral doses (Days 7-11 and 21-25, each 1/5 of bolus) compared to single bolus doses (Day 7 and 21)", "result": "lower tumor burden"}, {"measurement": "overall survivability (Kaplan-Meier survival curve)", "setting": "CT26 colon carcinoma", "result": "greater than the bolus dose group"}, {"measurement": "tumor burden (tumor volume over time)", "setting": "CT26 colon carcinoma", "result": "lower tumor burden"}]}]}
